Measurements from PubChem BioAssay AID330 (DTP/NCI, 2004).
Several values for one entry are separate records, joined by “and”; a condition that tells them apart may be missing. Identical values can stand only once. Inconclusive results and toxic doses are left out.

Test system: P388 leukemia ip, CD2F1 mice, survival T/C
Test: NCI In Vivo Anticancer Drug Screen. Data for tumor model P388 Leukemia (intraperitoneal) in CD2F1 (CDF1) mice
Conditions: endpoint: median survival time, higher = longer survival
Procedure, shortened: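 Mice carrying the transplanted tumor received test compound or vehicle. Survival was recorded in each group, and the value is the treated-group measurement divided by that of the vehicle-treated control group.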

[1] = dose: 60.0 mg/kg/injection, schedule: Q01DX005 (ip), vehicle: saline with Tween-80
[2] = dose: 120.0 mg/kg/injection, schedule: Q01DX005 (ip), vehicle: saline with Tween-80
[3] = dose: 240.0 mg/kg/injection, schedule: Q01DX005 (ip), vehicle: saline with Tween-80
[4] = dose: 50.0 mg/kg/injection, schedule: Q01DX009 (ip), vehicle: Klucel (hydroxypropylcellulose) (HPC)
[5] = dose: 100.0 mg/kg/injection, schedule: Q01DX009 (ip), vehicle: Klucel (hydroxypropylcellulose) (HPC)
[6] = dose: 200.0 mg/kg/injection, schedule: Q01DX009 (ip), vehicle: Klucel (hydroxypropylcellulose) (HPC)
[7] = dose: 7.5 mg/kg/injection, schedule: Q01DX005 (ip), vehicle: Klucel (hydroxypropylcellulose) (HPC)
[8] = dose: 15.0 mg/kg/injection, schedule: Q01DX005 (ip), vehicle: Klucel (hydroxypropylcellulose) (HPC)

## O=C(O)C(O)C(O)C(=O)O.O=C(O)C(O)C(O)C(=O)O.[O]=[V].[O]=[V] (stereo unspecified)
dose: 12.5 mg/kg/injection, schedule: Q01DX009 (ip), vehicle: saline
  T/C: 110 % of control
dose: 15.0 mg/kg/injection, schedule: Q01DX009 (ip), vehicle: saline
  T/C: 102 % of control
dose: 25.0 mg/kg/injection, schedule: Q01DX009 (ip), vehicle: saline
  T/C: 110 % of control
dose: 25.0 mg/kg/injection, schedule: Q04DX003 (ip), vehicle: saline sonified
  T/C: 100 % of control
dose: 30.0 mg/kg/injection, schedule: Q01DX009 (ip), vehicle: saline
  T/C: 106 % of control
dose: 50.0 mg/kg/injection, schedule: Q04DX003 (ip), vehicle: saline sonified
  T/C: 104 % of control

## CCOC(=O)/C(O)=C/C1=CC(=O)CC(C)(C)C1
dose: 100.0 mg/kg/injection, schedule: Q04DX002 (ip), vehicle: saline with Tween-80
  T/C: 110 % of control
dose: 200.0 mg/kg/injection, schedule: Q04DX002 (ip), vehicle: saline with Tween-80
  T/C: 114 % of control
dose: 400.0 mg/kg/injection, schedule: Q04DX002 (ip), vehicle: saline with Tween-80
  T/C: 103 % of control

## CCCCN1C=C(C)N(CCCC)CC1
dose: 12.5 mg/kg/injection, schedule: Q01DX005 (ip), vehicle: saline with Tween-80
  T/C: 109 % of control
dose: 25.0 mg/kg/injection, schedule: Q01DX005 (ip), vehicle: saline with Tween-80
  T/C: 114 % of control
dose: 50.0 mg/kg/injection, schedule: Q01DX005 (ip), vehicle: saline with Tween-80
  T/C: 121 % of control and 123 % of control
dose: 100.0 mg/kg/injection, schedule: Q01DX005 (ip), vehicle: saline with Tween-80
  T/C: 116 % of control

## C[Si]1(C)N[Si](C)(C)N[Si](C)(C)N1
dose: 50.0 mg/kg/injection, schedule: Q01DX009 (ip), vehicle: saline with Tween-80
  T/C: 103 % of control
dose: 100.0 mg/kg/injection, schedule: Q01DX009 (ip), vehicle: saline with Tween-80
  T/C: 95 % of control
dose: 200.0 mg/kg/injection, schedule: Q01DX009 (ip), vehicle: saline with Tween-80
  T/C: 108 % of control

## C=C(C)C1CC2=C(C(=O)OC)C=C(O2)C(C(=C)C)C2OC(=O)/C(=C\C1O)C2OC (stereo unspecified)
dose: 11.88 mg/kg/injection, schedule: Q01DX005 (ip), vehicle: saline + alcohol
  T/C: 99 % of control
dose: 23.75 mg/kg/injection, schedule: Q01DX005 (ip), vehicle: saline + alcohol
  T/C: 96 % of control
dose: 47.5 mg/kg/injection, schedule: Q01DX005 (ip), vehicle: saline + alcohol
  T/C: 101 % of control
dose: 95.0 mg/kg/injection, schedule: Q01DX005 (ip), vehicle: saline + alcohol
  T/C: 108 % of control
dose: 190.0 mg/kg/injection, schedule: Q01DX005 (ip), vehicle: saline + alcohol
  T/C: 99 % of control

## O=S(=O)(Nc1ncccn1)c1ccc(NCc2c3ccccc3nc3cc(Cl)ccc23)cc1
[1]
  T/C: 87 % of control
[2]
  T/C: 86 % of control
[3]
  T/C: 91 % of control

## c1ccc(N2CCN(C(c3cccs3)N3CCN(c4ccccc4)CC3)CC2)cc1
[1]
  T/C: 100 % of control
[2]
  T/C: 99 % of control

## COc1ccccc1Nc1n[nH]c(=S)s1
[4]
  T/C: 121 % of control
[5]
  T/C: 105 % of control
[6]
  T/C: 95 % of control

## O=C1c2cccc(O)c2C(=O)c2c1cc(CO)c(-c1c(CO)cc3c(c1O)C(=O)c1c(O)cccc1C3=O)c2O
dose: 3.75 mg/kg/injection, schedule: Q01DX005 (ip), vehicle: Klucel (hydroxypropylcellulose) (HPC)
  T/C: 98 % of control
[7]
  T/C: 100 % of control
[8]
  T/C: 99 % of control

## c1cnc2c(NC3CCCCC3)ncnc2n1
[4]
  T/C: 100 % of control
[5]
  T/C: 98 % of control
[6]
  T/C: 97 % of control

## CCc1nc(N)nc(N)c1-c1ccc(N(C)C2CCCCC2)c([N+](=O)[O-])c1
[1]
  T/C: 105 % of control and 106 % of control
[2]
  T/C: 115 % of control
[3]
  T/C: 103 % of control
dose: 480.0 mg/kg/injection, schedule: Q01DX005 (ip), vehicle: saline with Tween-80
  T/C: 168 % of control

## CS/N=C(\c1ccccc1)N(C)C
[7]
  T/C: 97 % of control
[8]
  T/C: 100 % of control
